Assay: ABEL antioxidant assay with peroxynitrite, raw materials and combinations of three raw materials in solvent
Format: biochemical
Settings: for ABEL-RAC contribution in combination: ABEL-RAC of pure ingredient x percentage of ingredient in combination
Excerpt: The ABEL antioxidant assay is an in vitro assay for testing the antioxidant capacity of a material. It utilises a photoprotein, which emits light when challenged with various free radical species, eg peroxynitrite, hydroxyl radicals or halogenated oxidants.
If a material is challenged with one or more of these free radical species, then any antioxidant in the sample will compete with the photoprotein. The result of this competition is a reduction in the amount of light emitted and sometimes, in addition, a delay in the time at which the maximum light emitted occurs. A light response curve can be produced for each sample tested, and EC50 and ABEL-RAC values calculated. The EC50 (effective concentration) is the concentration (normalised to g/L or mg/mL) of a material that reduces the light emitted by 50%. This reduction in light is a measure of the antioxidant capacity of the test material. The reciprocal of the EC50 values multiplied by 100 is referred to as the ABEL-RAC score.
The ABEL® antioxidant assay with peroxynitrite is the assay of choice to assess total antioxidant capacity because peroxynitrite attacks almost all compounds, including hydrophobic and hydrophilic antioxidants. Pro-oxidants are also identified with the peroxynitrite assay. Other ABEL® antioxidant assays use superoxide (produced as a single bolus in high concentration as well as enzymatically), hydroxyl radical and hyperchlorous acid (the halogenated oxidant assay). Pro-oxidants are not observed with the hydroxyl radical and halogenated oxidant assays. The hydroxyl radical assay is recommended when samples are water-soluble and the halogenated assay when the samples are soluble in organic solvent. This is because solvents such as ethanol, methanol, acetone and DMSO are good quenchers of hydroxyl radicals, and therefore the organic solvents contribute to the antioxidant effect shown by the sample. Organic solvents have little effect, however, on the halogenated oxidant assay.
• 1. The antioxidant agents (referred to as raw materials (RM) hereafter) were first dissolved in an appropriate solvent as detailed in Table 1. • 2. Combinations of three raw materials were prepared for testing by combining one part each of three raw material dilutions, at the concentrations specified in Table 2. • 3. In Table 2 each combination is given a combination number and each combination number is further described as A, B or C, where the concentrations of the raw material dilutions used in B are ten times greater that A, and the concentrations used in C are ten times greater than B (one hundred times greater than A). • 4. The concentrations of raw materials provided in Table 2 are the final concentrations of those materials in the ABEL® antioxidant assay.
Raw material combinations 1, 3, 4, 8 and 9 were assayed at three additional concentrations which are dilutions of concentration A (see Table 2). The details are contained in Table 3.

COc1cc2c(cc1O)CCC(C)(C)O2 [RM10, dimethylmethoxy chromanol]
ABEL-RAC contribution in combination (Combination 1): 35221
ABEL-RAC contribution in combination (Combination 3): 10031
ABEL-RAC contribution in combination (Combination 4): 9606
ABEL-RAC contribution in combination (Combination 8): 4832
Effect of solvent (ethanol rather than IMS) on ABEL peroxynitrite assay result (diluted with IMS versus diluted with ethanol, FIG. 19): does not make an appreciable difference
EC50 mg/mL of pure ingredient (pure raw material, ABEL peroxynitrite assay): 0.0018 mg/mL
ABEL-RAC peroxynitrite of pure ingredient (pure raw material, ABEL-RAC = reciprocal of EC50 x 100): 88053

Source: patent US8501162B2, “Compositions and methods for the skin and hair” (The Boots Company PLC, priority 2007, dated 2013)
